{"source": "paper PMC3423587", "about": "(Bioorganic & medicinal chemistry letters, 2012)", "key": {"recombinant β-secretase": {"target": "recombinant β-secretase (Homo sapiens, UniProt P56817)", "sequence (P56817 46-501)": "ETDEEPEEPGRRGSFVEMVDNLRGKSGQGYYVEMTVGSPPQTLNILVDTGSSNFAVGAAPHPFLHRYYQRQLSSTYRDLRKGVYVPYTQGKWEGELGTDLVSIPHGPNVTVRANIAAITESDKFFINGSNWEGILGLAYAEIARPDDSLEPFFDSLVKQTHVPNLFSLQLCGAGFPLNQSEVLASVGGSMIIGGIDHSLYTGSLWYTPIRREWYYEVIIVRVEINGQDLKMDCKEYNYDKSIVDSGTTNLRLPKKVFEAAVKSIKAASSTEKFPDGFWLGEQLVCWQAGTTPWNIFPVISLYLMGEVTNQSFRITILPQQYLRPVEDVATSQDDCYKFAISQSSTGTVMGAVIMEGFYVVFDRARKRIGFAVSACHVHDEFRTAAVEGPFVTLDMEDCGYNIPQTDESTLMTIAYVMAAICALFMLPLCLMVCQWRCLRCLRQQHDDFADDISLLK", "test": "β-secretase inhibitory activity against recombinant β-secretase", "conditions": "for fold lower enzyme inhibitory potency: compared to 3a"}, "[1]": {"test_system": "β-secretase in neuroblastoma cells", "conditions": "Neuroblastoma cell"}, "transgenic AD mice": {"test_system": "transgenic AD mice", "conditions": "cited from earlier work"}}, "data": [{"molecule": "CN(C(=O)CC[C@@H](c1ccccc1)N1Cc2cc(Oc3ccccc3)ccc2N=C1N)C1CCCCC1", "note": "[3b]", "values": [{"measurement": "fold lower enzyme inhibitory potency", "setting": "recombinant β-secretase", "value": "~6", "unit": "fold"}]}, {"molecule": "CN(C(=O)OC[C@@H](c1ccccc1)N1Cc2cc(Oc3ccccc3)ccc2N=C1N)C1CCCCC1", "note": "[3c]", "values": [{"measurement": "fold loss of potency", "setting": "recombinant β-secretase; compared to 3b", "value": "~5", "unit": "fold"}]}, {"molecule": "CN(C(=O)OC[C@@H](C1CCCCC1)N1Cc2cc(Oc3ccccc3)ccc2N=C1N)C1CCCCC1", "note": "[3d]", "values": [{"measurement": "fold improved potency", "setting": "recombinant β-secretase; over 3c", "value": 20, "unit": "fold"}]}, {"molecule": "CN(C(=O)CC[C@@H](C1CCCOC1)N1Cc2cc(Oc3ccccc3)ccc2N=C1N)C1CCCCC1", "note": "(stereo partly shown) [3g]", "values": [{"measurement": "fold lower enzyme inhibitory potency", "setting": "recombinant β-secretase", "value": "~5", "unit": "fold"}]}, {"molecule": "COCc1nc(CN(C(=O)CC[C@@H](C2CCCCC2)N2Cc3cc(Oc4ccccc4)ccc3N=C2N)C2CCCCC2)cs1", "note": "[4f]", "values": [{"measurement": "fold improvement of enzyme activity", "setting": "recombinant β-secretase; over 4b", "value": "~6", "unit": "fold"}]}, {"molecule": "NC1=Nc2ccc(Oc3ccccc3)cc2CN1[C@@H](CCC(=O)N(Cc1cn[nH]c1)C1CCCCC1)C1CCCCC1", "note": "[4h]", "values": [{"measurement": "IC50", "setting": "[1]", "value": 0.048, "unit": "µM"}]}, {"molecule": "COc1cccc(CNC[C@@H](O)[C@H](Cc2ccccc2)NC(=O)c2cc(C(=O)N[C@H](C)c3ccccc3)cc(N(C)S(C)(=O)=O)c2)c1", "note": "[GRL-8234]", "values": [{"measurement": "effect on cognitive function", "setting": "transgenic AD mice", "value": "rescued the decline of cognitive function"}]}]}
